Measurements reported in patent US8975401B2, “Quinazoline based EGFR inhibitors containing a zinc binding moiety” (Curis, Inc., priority 2006, dated 2015).
One block for each molecule: values may come before it.

Key:
[1] = mouse, in vivo
HDAC = HDAC fluorimetric enzyme assay (Biomol AK-500, HeLa nuclear extract); type: biochemical
Method: HDAC inhibitors were screened using an HDAC fluorimetric assay kit (AK-500, Biomol, Plymouth Meeting, Pa.).
Each assay was setup as follows: Defrosted all kit components and kept on ice until use. […] Prepared dilutions of Trichostatin A (TSA, positive control) and tested compounds in assay buffer (5× of final concentration). Diluted Fluor de Lys™ Substrate in assay buffer to 100 uM (50 fold=2× final). Diluted Fluor de Lys™ developer concentrate 20-fold (e.g. 50 μl plus 950 μl Assay Buffer) in cold assay buffer. Second, diluted the 0.2 mM Trichostatin A 100-fold in the 1× Developer (e.g. 10 μl in 1 ml; final Trichostatin A concentration in the 1× Developer=2 μM; final concentration after addition to HDAC/Substrate reaction=1 μM). Added Assay buffer, diluted trichostatin A or test inhibitor to appropriate wells of the microtiter plate. Added diluted HeLa extract or other HDAC sample to all wells except for negative controls.

[2] = target: T1, human EGFR (His672-Ala1210) (Homo sapiens, UniProt P00533); assay: HTScan EGF Receptor Kinase Assay; type: biochemical; conditions: for activity in EFGR enzyme assay compared with erlotinib: FIG. 1
T1 construct: human EGFR (His672-Ala1210); GST (N); purchased Cell Signaling Technologies; host or cells: baculovirus expression system
Method: The ability of compounds to inhibit receptor kinase (EGFR) activity was assayed using HTSCAN™ EGF Receptor Kinase Assay Kits (Cell Signaling Technologies, Danvers, Mass.). […] The protein was purified by one-step affinity chromatography using glutathione-agarose.
Immediately transfer enzyme from −80° C. to ice. Allowed enzyme to thaw on ice. […] Returned immediately to ice. […] Incubated reaction plate at room temperature for 30 minutes. […] Added 100 μl/well primary antibody. Incubated at room temperature for 60 minutes. […] Added 100 μl/well diluted antibody. Incubated at room temperature for 30 minutes. […] Incubated at room temperature for 5 minutes.

[3] = system: HDAC in MDA-MB-468 breast cancer cell line; assay: Inhibition of HDAC in cells (Ac-H4, Ac-H3 accumulation), FIG. 2; type: cell-based; conditions: MDA-MB-468, FIG. 2
[4] = system: EGFR in MDA-MB-468 breast cancer cell line; assay: Inhibition of EGFR phosphorylation in cells, FIG. 2; type: cell-based; conditions: MDA-MB-468, FIG. 2
Method: (b) An In Vitro Assay which Determines the Ability a Test Compound to Inhibit the EGF-Stimulated EGFR Phosphorylation.
Allowed A431 cell growth in a T75 flask using standard tissue culture procedures until cells reach near confluency (˜1.5×10^7) cells; D-MEM, 10% FBS). Under sterile conditions dispensed 100 μl of the cell suspension per well in 96-well microplates (x cells plated per well). Incubated cells and monitor cell density until confluency is achieved with well-to-well consistency; approximately three days. Removed complete media from plate wells by aspiration or manual displacement. Replaced media with 50 μl of pre-warmed serum free media per well and incubated 4 to 16 hours. Made two fold serial dilutions of inhibitor using pre-warmed D-MEM so that the final concentration of inhibitor range from 10 μM to […]. Removed media from A431 cell plate. Added 100 μl of serial diluted inhibitor into cells and incubate 1 to 2 hours. Removed inhibitor from plate wells by aspiration or manual displacement. Added either serum free media for resting cells (mock) or serum free media with 100 ng/ml EGF. Used 100 μl of resting/activation media per well. Allowed incubation at 37° C. for 7.5 minutes. Removed activation or stimulation media manually or by aspiration. Immediately fixed cells with 4% formaldehyde in 1×PBS. […]

A549 NSCLC Xenograft = assay: A549 NSCLC xenograft model; type: in vivo, mice; conditions: FIG. 11A, 11B
Method: (§1) A representative protocol for the in vivo experiment is as followed:
(§2) 1-10×10^6 human cancer cells were implanted subcutaneously to the athymic (nu/nu) mice. When the tumors reached about 100 mm^3 in volume, the mice were treated with the compound by tail vein infusion. Routinely 5 groups (8-12 mice per group) are needed for a typical efficacy study, including one negative control, one positive control, and three testing groups for 3 dose levels of the same compound. Usually a 7-7-5 (on-off-on) regimen was used for one typical study. The tumor size was measured with an electronic caliper and body weight measured with a scale twice weekly. The tumors were removed from euthanized mice at the end of the study. One half of each tumor was frozen in dry ice and stored at −80° C. for PK or Western blot analysis. The other half was fixed with formalin. The fixed tissues were processed, embedded in paraffin and sectioned for immunohistochemistry staining

[5] = system: HPAC pancreatic cancer cells; assay: HPAC pancreatic cancer xenograft; type: in vivo, mice; conditions: 120 mg/kg in 30% CAPTISOL (iv/ip) daily vs 50 mg/kg erlotinib (po); FIG. 12A
Method: as §1, §2

[6] = Pharmacokinetic study in rats (plasma); type: in vivo; conditions: 20 and 60 mg/kg iv, hydrochloride salt in 30% CAPTISOL, FIG. 14
Method: Compound was administered via an intravenous (iv) infusion.
Rat: 20 mg/kg for 5 min i.v. infusion
Plasma samples were prepared by protein precipitation. An internal standard was added into plasma samples. […] The supernatant was then injected onto LC/MS/MS.
Samples were compared to standards made in plasma. These standards were prepared by serial dilution.

cancer cell lines = assay: Anti-proliferative activity in various cancer cell lines (general statements, FIG. 3); type: cell-based; conditions: lung, breast, prostate, colon, pancreas cell lines
Method: Cell Proliferation Assay:
Cancer cell lines were plated at 5,000 to 10,000 per well in 96-well flatted bottomed plates with various concentration of compounds. The cells were incubated with compounds for 72 hours in the presence of 0.5% of fetal bovine serum. Growth inhibition was accessed by adenosine triphosphate (ATP) content assay using Perkin Elmer ATPlite kit. ATPlite is an ATP monitoring system based on firefly luciferase. Briefly, 25 μl of mammalian cell lysis solution was added to 50 μl of phenol red-free culture medium per well to lyse the cells and stabilize the ATP. 25 μl of substrate solution was then added to the well and subsequently the luminescence was measured.

VEGFR = VEGFR (Homo sapiens, UniProt P35968); assay: VEGFR assay (Table B); type: biochemical
[7] = remark: listed apart in the source
Excerpt: B. Filtration of the Solution
C. Preparation of a Lyophilisate

VEGFR, sequence (P35968 20-1356): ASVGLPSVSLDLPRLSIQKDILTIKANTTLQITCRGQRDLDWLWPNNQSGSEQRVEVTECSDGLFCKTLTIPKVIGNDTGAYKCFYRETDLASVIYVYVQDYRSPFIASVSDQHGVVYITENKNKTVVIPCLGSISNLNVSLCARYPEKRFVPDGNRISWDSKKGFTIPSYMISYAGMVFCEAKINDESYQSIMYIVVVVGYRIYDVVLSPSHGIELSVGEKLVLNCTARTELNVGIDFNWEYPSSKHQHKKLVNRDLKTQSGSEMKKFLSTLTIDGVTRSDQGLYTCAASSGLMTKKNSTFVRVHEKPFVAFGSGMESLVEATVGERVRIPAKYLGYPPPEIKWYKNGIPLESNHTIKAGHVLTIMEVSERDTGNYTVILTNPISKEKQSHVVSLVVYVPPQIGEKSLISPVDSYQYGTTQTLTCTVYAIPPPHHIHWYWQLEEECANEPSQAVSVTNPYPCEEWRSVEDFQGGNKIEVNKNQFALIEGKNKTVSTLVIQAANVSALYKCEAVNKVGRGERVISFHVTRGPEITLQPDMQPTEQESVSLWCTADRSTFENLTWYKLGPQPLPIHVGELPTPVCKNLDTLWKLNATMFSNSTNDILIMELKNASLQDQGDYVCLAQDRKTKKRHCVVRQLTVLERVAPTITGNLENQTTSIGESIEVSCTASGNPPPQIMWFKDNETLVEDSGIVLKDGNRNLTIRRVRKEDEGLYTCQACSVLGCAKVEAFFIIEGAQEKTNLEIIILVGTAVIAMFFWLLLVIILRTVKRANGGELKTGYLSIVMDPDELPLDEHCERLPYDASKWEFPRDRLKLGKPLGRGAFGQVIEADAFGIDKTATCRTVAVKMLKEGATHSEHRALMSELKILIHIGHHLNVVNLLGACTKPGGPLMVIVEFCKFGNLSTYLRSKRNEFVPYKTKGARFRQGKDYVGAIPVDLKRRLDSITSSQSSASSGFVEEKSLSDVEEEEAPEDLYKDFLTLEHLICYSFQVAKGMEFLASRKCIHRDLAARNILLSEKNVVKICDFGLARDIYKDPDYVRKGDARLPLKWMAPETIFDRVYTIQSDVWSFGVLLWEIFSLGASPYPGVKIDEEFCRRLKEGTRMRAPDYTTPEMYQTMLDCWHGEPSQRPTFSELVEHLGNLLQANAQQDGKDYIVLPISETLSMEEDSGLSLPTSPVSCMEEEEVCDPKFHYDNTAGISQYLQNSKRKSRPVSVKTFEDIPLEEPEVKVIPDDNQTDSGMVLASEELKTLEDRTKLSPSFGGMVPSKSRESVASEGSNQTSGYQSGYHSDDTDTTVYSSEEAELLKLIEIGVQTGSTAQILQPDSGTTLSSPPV
T1 sequence (P00533 672-1210): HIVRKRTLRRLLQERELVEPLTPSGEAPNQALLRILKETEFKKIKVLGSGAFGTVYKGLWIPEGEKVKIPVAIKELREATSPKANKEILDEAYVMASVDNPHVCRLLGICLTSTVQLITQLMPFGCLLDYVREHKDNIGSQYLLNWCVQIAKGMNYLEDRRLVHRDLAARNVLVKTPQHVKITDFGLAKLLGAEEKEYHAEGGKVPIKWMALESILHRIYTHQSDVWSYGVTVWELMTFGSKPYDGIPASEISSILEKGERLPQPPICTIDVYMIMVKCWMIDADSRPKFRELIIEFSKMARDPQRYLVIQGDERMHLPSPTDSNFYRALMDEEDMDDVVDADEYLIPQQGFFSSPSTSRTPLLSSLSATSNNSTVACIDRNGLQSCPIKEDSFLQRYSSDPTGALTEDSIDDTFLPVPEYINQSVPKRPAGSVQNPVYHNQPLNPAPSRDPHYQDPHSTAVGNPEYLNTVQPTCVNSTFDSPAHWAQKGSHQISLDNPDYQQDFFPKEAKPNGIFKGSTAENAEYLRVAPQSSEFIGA

IV Tissue [1]: High
Molecule: Tartaric Acid

IC50 (HDAC): < 100 nM
Molecule: COc1cc2ncnc(Nc3ccc(F)c(Cl)c3)c2cc1SCCCCC(=O)NO [Compound 151]

Molecule: C#Cc1cccc(Nc2ncnc3cc(OC)c(OCCCCCCC(=O)NO)cc23)c1 [Compound 12, 7-(4-(3-ethynylphenylamino)-7-methoxyquinazolin-6-yloxy)-N-hydroxyheptanamide]
activity in EFGR enzyme assay compared with erlotinib [2]: more active than erlotinib and SAHA
histone acetylation (Ac-H3/Ac-H4) compared with SAHA [3]: improvement in inhibition of histone acetylation
inhibition of EGFR phosphorylation compared with Erlotinib [4]: improvement in inhibition of histone acetylation and EGFR phosphorylation
effect on tumor growth / tumor size (A549 NSCLC Xenograft): attenuated tumor growth
attenuation of tumor growth [5]: greater attenuation of tumor growth than either erlotinib (po) or vehicle
dose proportionality of plasma concentration [6]: proportional to the dose
anti-proliferative potency compared with SAHA, Erlotinib and their combination (cancer cell lines): responded better to compound 12 than a combination of erlotinib and SAHA

IC50 (HDAC): < 100 nM
Molecule: COc1cc2ncnc(Nc3ccc(F)c(Cl)c3)c2cc1SCCCCCCC(=O)NO [Compound 155]

melting point: 195.8 to 197 °C
Molecule: C#Cc1cccc(Nc2ncnc3cc(OC)c(OCCCCCCC(=O)NOC)cc23)c1 [Compound 95, 7-(4-(3-ethynylphenylamino)-7-methoxyquinazolin-6-yloxy)-N-methoxyheptanamide]

Molecule: C#Cc1cccc(Nc2ncnc3cc(OCCOC)c(OCCOC)cc23)c1 [Erlotinib, reference compound]
effect on tumor growth / tumor size (A549 NSCLC Xenograft): did not significantly affect tumor size

activity in HDAC enzyme assay compared with SAHA (HDAC; FIG. 1): more active than erlotinib and SAHA
IC50 [2]: < 100 nM
activity in EFGR enzyme assay compared with erlotinib [2]: more active than erlotinib and SAHA
IC50 (VEGFR): 100 to 1000 nM
Molecule: COc1cc2ncnc(Nc3ccc(F)c(Cl)c3)c2cc1OCCCCCCC(=O)NO [Compound 6, 7-(4-(3-Chloro-4-fluorophenylamino)-7-methoxyquinazolin-6-yloxy)-N-hydroxyheptanamide]

Chemical stability in diluted solution [7]: >12 h
Dilution with D5W [7]: >10x
Solubility [7]: 7500 µg/mL
pH ([7]; salt in 30% CAPTISOL): 10-11
IV Tissue [1]: High
Molecule: Sodium

IC50 [2]: < 100 nM
Molecule: C#Cc1cccc(Nc2ncnc3cc(OC)c(NC(=O)CCCCC(=O)NO)cc23)c1 [Compound 43, N^1-(4-(3-ethynylphenylamino)-7-methoxyquinazolin-6-yl)-N^6-hydroxyadipamide]

IC50 [2]: 100 to 1000 nM
Molecule: COc1cc2ncnc(NCc3ccc(F)c(F)c3)c2cc1OCCCCCCC(=O)NO [Compound 87, 7-(4-(3,4-difluorobenzylamino)-7-methoxyquinazolin-6-yloxy)-N-hydroxyheptanamide]

IC50 [2]: < 100 nM
Molecule: C#Cc1cccc(Nc2ncnc3cc(OC)c(NC(=O)CCCC(=O)NO)cc23)c1 [Compound 42, N^1-(4-(3-ethynylphenylamino)-7-methoxyquinazolin-6-yl)-N^5-hydroxyglutaramide]

IC50 [2]: < 100 nM
Molecule: O=C(CCCCCOc1ccc2ncnc(Nc3ccc(F)c(Cl)c3)c2c1)NO [Compound 17, 6-(4-(3-chloro-4-fluorophenylamino)quinazolin-6-yloxy)-N-hydroxy hexanamide]

IC50 [2]: < 100 nM
Molecule: COc1cc2ncnc(Nc3ccc(F)c(Cl)c3)c2cc1OCCOc1ccc(/C=C/C(=O)NO)cc1 [Compound 66, (E)-3-(4-(2-(4-(3-chloro-4-fluorophenylamino)-7-methoxyquinazolin-6-yloxy)ethoxy)phenyl)-N-hydroxyacrylamide]

IC50 [2]: < 100 nM
Molecule: C#Cc1cc(Nc2ncnc3cc(OCCOC)c(OCCCCCCC(=O)NO)cc23)ccc1F [Compound 76]

Molecule: COc1cc2ncnc(NCc3ccccc3)c2cc1OCCCCCCC(=O)NO [Compound 85, 7-(4-(Benzylamino)-7-methoxyquinazolin-6-yloxy)-N-hydroxyheptanamide]
IC50 [2]: < 100 nM
IC50 (VEGFR): 1000 to 10000 nM

IC50 [2]: < 100 nM
Molecule: C#Cc1cccc(Nc2ncnc3cc(OC)c(NC(=O)CCCCCCC(=O)NO)cc23)c1 [Compound 44, N^1-(4-(3-ethynylphenylamino)-7-methoxyquinazolin-6-yl)-N^8-hydroxyoctanediamide]

IC50 (VEGFR): > 10000 nM
Molecule: COc1cc2ncnc(N[C@H](C)c3ccccc3)c2cc1OCCCCCCC(=O)NO [Compound 79, (R)—N-hydroxy-7-(7-methoxy-4-(1-phenylethylamino)quinazolin-6-yloxy)heptanamide]

IC50 [2]: < 100 nM
Molecule: C#Cc1cccc(Nc2ncnc3cc(OC)c(OCC(=O)NO)cc23)c1 [Compound 7, 2-(4-(3-ethynylphenylamino)-7-methoxyquinazolin-6-yloxy)-N-hydroxyacetamide]
